Experimental findings from patent US20240122932A1, “Methods of Treating B-Cell Malignancy Using Bcl-2 Inhibitor” (BeiGene Switzerland GmbH, priority 2021, published 2024) are described below.

Assay [1] has as its system RS4;11 acute lymphoblastic leukemia (ALL) subcutaneous xenograft. In words: RS4;11 ALL subcutaneous xenograft model. In kind it is in vivo, NCG mice. How it is done:
The RS4;11 cells are of acute lymphoblastic leukemia (ALL) origin and were obtained from American Type Culture Collection (ATCC CRL-1873, Manassas, VA, DC, USA). Cells were grown in RPM 1640 medium (Corning, Cat #10-040-CVR), supplemented with 10% (v/v) fetal bovine serum (Gibco, Cat #10099-141C), and 100 μg/mL of penicillin and streptomycin (Gibco, Cat #15140-122). RS4;11 cells were maintained as suspension cell cultures at 37° C. in a 5% CO2 atmosphere. Five to six-week-old female NCG mice were purchased from Gempharmatech of Information Technology Center. All animals were maintained under specific pathogen free (SPF) “full barrier” condition with free access to food and water. Mice were group-housed under a 12 h light:dark cycle (lights on at 08:00 h), at a temperature of 20-26° C. and 37-62% humidity in IVC cages (Lingyunboji (Beijing) Technology Co., Ltd.). Mice were fed with complete granulated feed with Co60 radiosterilization (Beijing Ke Ao Xie Li Feed Co., Ltd.).
On the day of implantation, RS4;11 cells were harvested and re-suspended with appropriate volume of ice cold DPBS and same volume of Matrigel (Corning, Cat #356237) to give a final concentration of 5×10^7 cells/mL. Re-suspended cells were placed on ice prior to inoculation. The right front flank region of each mouse was cleaned with 75% ethanol prior to cell inoculation. Each animal was injected subcutaneously with 1×10^7 cells in 200 μL of cell suspension in the right front flank via a 26-gauge needle. After implantation, primary tumor volume was measured in two dimensions using a caliper.
Animals were randomly assigned into 10 groups with 10 mice per group according to body weight and tumor volume (100 mm^3-200 mm^3). The groups consisted of vehicle group, 5, 15, 50 mg/kg of venetoclax with QD dosing, 5, 15, 50 mg/kg of Compound 1 with QD dosing, and 2.5, 7.5, 25 mg/kg of Compound 1 with BID dosing. Treatments were administered by oral gavage (p.o.) in a volume of 10 mL/kg body weight. Body weight was assessed immediately before dosing and volume dosed was adjusted accordingly.
(§1) Individual body weight was recorded twice weekly, with mice being monitored daily for clinical signs of toxicity for the duration of the study. Mice were euthanized using carbon dioxide when their tumor volume reached 2,000 mm^3, the tumor was ulcerated, or body weight loss exceeded 20%.
Tumor volume was calculated using the formula: V=0.5×(a×b^2) where a and b are the long and short diameters of the tumor, respectively.

The test system of assay [2] is Toledo diffuse large B cell lymphoma (DLBCL) subcutaneous xenograft. In words: Toledo DLBCL subcutaneous xenograft model. In kind it is in vivo, NCG mice. On the procedure: Toledo cells are of diffuse large B cell lymphoma (DLBCL) origin and were obtained from American Type Culture Collection (ATCC CRL-2631, Manassas, VA, DC, USA). Cells were grown in RPMI 1640 medium (Corning. Cat #10-040-CVR), supplemented with 10% (v/v) fetal bovine serum (Gibco, Cat #10099-141C), and 100 μg/mL of penicillin and streptomycin (Gibco, Cat #15140-122). Toledo cells were maintained as suspension cell cultures at 37° C. in a 5% CO2 atmosphere. Five to six-week-old female NCG mice were purchased from Gempharmatech of Information Technology Center. All animals were maintained under specific pathogen free (SPF) “full barrier” condition with free access to food and water. Mice were group-housed under a 12 h light:dark cycle (lights on at 08:00 h), at a temperature of 21-26° C. and 35-61% humidity in IVC cages (Lingyunboji (Beijing) Technology Co., Ltd.). Mice were fed with complete granulated feed with Co60 radiosterilization (Beijing Ke Ao Xie Li Feed Co., Ltd.).
On the day of implantation, Toledo cells were harvested and re-suspended with appropriate volume of ice cold DPBS and same volume of Matrigel (Corning, Cat #356237) to give a final concentration of 1.5×10^7 cells/mL. Re-suspended cells were placed on ice prior to inoculation. The right front flank region of each mouse was cleaned with 75% ethanol prior to cell inoculation. Each animal was injected subcutaneously with 3×10^6 cells in 200 μL of cell suspension in the right front flank via a 26-gauge needle. After implantation, primary tumor volume was measured in two dimensions using a caliper.
Transplanted animals were randomized into 10 groups with 10 mice per group on day 0 according to transplantation sequence and body weight. The groups consisted of vehicle group, 5, 15, 50 mg/kg of venetoclax with QD dosing, 5, 15, 50 mg/kg of Compound 1 with QD dosing, and 2.5, 7.5, 25 mg/kg of Compound 1 with BID dosing. Treatments were administered by oral gavage (p.o.) in a volume of 10 mL/kg body weight. Body weight was assessed immediately before dosing and volume dosed was adjusted accordingly.
as §1
Tumor volume was calculated using the formula: V=0.5×(a×b^2) where a and b are the long and short diameters of the tumor, respectively. Tumor growth inhibition (TGI) was calculated using the following formula: % TGI=100×[1−(treatedt−treatedt0)/(vehiclet−vehiclet0)] (treated t=treated tumor volume at time t, treated t0=treated tumor volume at time 0, vehicle t=vehicle tumor volume at time t and vehicle t0=vehicle tumor volume at time 0)

Where [3] appears, read: same total daily doses of 5 and 15 mg/kg.

SMILES strings stand for the structures. Bounds are passed on as bounds.

On to `CC(C)c1ccccc1[C@@H]1CCCN1C1CC2(CCN(c3ccc(C(=O)NS(=O)(=O)c4ccc(NCC5CCC(C)(O)CC5)c([N+](=O)[O-])c4)c(Oc4cnc5[nH]ccc5c4)c3)CC2)C1` (stereo partly drawn) [Compound 1, 2-((1H-pyrrolo[2,3-b]pyridin-5-yl)oxy)-N-((4-((((1r,4r)-4-hydroxy-4-methylcyclohexyl)methyl)amino)-3-nitrophenyl)sulfonyl)-4-(2-((S)-2-(2-isopropylphenyl)pyrrolidin-1-yl)-7-azaspiro[3.5]nonan-7-yl)benzamide], for which the “Mean Tumor volume (Day 42) (mm^3 ± SEM)” value was found to be 512.5 ± 115.9 mm^3 in assay [1] (2.5 mg/kg BID × 42 p.o.); 820.9 ± 140.2 mm^3 in assay [1] (5 mg/kg QD × 42 p.o.); 252.8 ± 48.3 mm^3 in assay [1] (7.5 mg/kg BID × 42 p.o.); 312.6 ± 57.9 mm^3 in assay [1] (15 mg/kg QD × 42 p.o.); 136.6 ± 2.2 mm^3 in assay [1] (25 mg/kg BID × 42 p.o.); 141.8 ± 5.1 mm^3 in assay [1] (50 mg/kg QD × 42 p.o.). Besides, in assay [1] (oral administration at well tolerated doses), the “tumor growth inhibition (in words)” value was “potently and dose-dependently inhibited tumor growth”. Further, the “efficacy compared with venetoclax” value in assay [1] (setting [3]) and in assay [2] (setting [3]) was “significantly better efficacy when compared with venetoclax” each time. For the same compound, the “Mean Tumor volume (Day 31) (mm^3 ± SEM)” value is reported as 515.7 ± 79.1 mm^3 in assay [2] (2.5 mg/kg BID × 31 p.o.); 679.3 ± 63.2 mm^3 in assay [2] (5 mg/kg QD × 31 p.o.); 230.5 ± 25.9 mm^3 in assay [2] (7.5 mg/kg BID × 31 p.o.); 267.4 ± 30.4 mm^3 in assay [2] (15 mg/kg QD × 31 p.o.); 182.5 ± 15.9 mm^3 in assay [2] (25 mg/kg BID × 31 p.o.); 214.8 ± 19.4 mm^3 in assay [2] (50 mg/kg QD × 31 p.o.). Further, the “TGI (Day 31)” value is reported as 70% in assay [2] (2.5 mg/kg BID × 31 p.o.); 60% in assay [2] (5 mg/kg QD × 31 p.o.); 86% in assay [2] (7.5 mg/kg BID × 31 p.o.); 84% in assay [2] (15 mg/kg QD × 31 p.o.); 89% in assay [2] (25 mg/kg BID × 31 p.o.); 87% in assay [2] (50 mg/kg QD × 31 p.o.). Further, in assay [2] (2.5, 7.5, 25 mg/kg BID or 5, 15, 50 mg/kg QD, oral), the “anti-tumor effects (in words)” value is listed as “induced dose-dependent anti-tumor effects”.
With `CC1(C)CCC(CN2CCN(c3ccc(C(=O)NS(=O)(=O)c4ccc(NCC5CCOCC5)c([N+](=O)[O-])c4)c(Oc4cnc5[nH]ccc5c4)c3)CC2)=C(c2ccc(Cl)cc2)C1` [Venetoclax, reference compound], the “Mean Tumor volume (Day 42) (mm^3 ± SEM)” value in assay [1] (5 mg/kg QD × 35 p.o.) is >2000 mm^3; in assay [1] (15 mg/kg QD × 42 p.o.), 1070.6 ± 181.1 mm^3; in assay [1] (50 mg/kg QD × 42 p.o.) it was 288.4 ± 37.8 mm^3. The results for the “Mean Tumor volume (Day 31) (mm^3 ± SEM)” value in assay [2] (5 mg/kg QD × 31 p.o.), in assay [2] (15 mg/kg QD × 31 p.o.) and in assay [2] (50 mg/kg QD × 31 p.o.) were 1256.5 ± 136.5 mm^3, 847.8 ± 109.4 mm^3 and 258.3 ± 22.6 mm^3, respectively. Further, the “TGI (Day 31)” value in assay [2] (5 mg/kg QD × 31 p.o.) was 26%; in assay [2] (15 mg/kg QD × 31 p.o.), 50%; in assay [2] (50 mg/kg QD × 31 p.o.), 85%.
